Where “and” joins values, the source holds several entries; their conditions need not be identical. Equal values may be shown once. Read-outs that look alike come from different tables or passages of the source.
How the values were obtained:
human erythrocytes = conditions: 80 μg/L, AAPH 50 mmol/L
Protocol: The blood samples were centrifuged (3000 rpm, 10 min, 20 °C, Micro 22 R centrifuge, Hettich Zentrifugen, Tuttlingen, Germany) to separate erythrocytes from the plasma and washed three times with 0.9% saline (NaCl). […] The erythrocytes were suspended in 0.9% saline. As control of basal hemolysis, erythrocytes were incubated with 0.9% NaCl. For total hemolysis control erythrocytes were incubated with 2.0% v/v Triton X-100. Incubation with Triton X-100 and K4[Fe(CN)6] (at concentration 50 g/L) was performed to control methemoglobin (MetHb) formation. Moreover, an antioxidant control containing ascorbic acid (AA) at a concentration of 10 µg/mL was prepared, while AAPH at a concentration of 50 mmol/L was an oxidizing agent. Antipsychotics at concentrations equaling their maximum therapeutic plasma concentrations (TPCmax), as well as 5-fold higher (5 × TPCmax) and 5-fold lower than TPCmax (1/5 × TPCmax), and the oxidizing agent AAPH at a concentration of 50 mmol/L, were added to 2% RBC suspension. Controls and tested samples were incubated at 37 °C. […] The percentage of hemolysis was calculated with the following formula:Hemolysis (%) = (Asample/Atotal hemolysis) × 100%(1) where Asample—absorbance of the test sample; Atotal hemolysis—the absorbance of the reference sample with 2% Triton X solution, corresponding to complete hemolysis.

[1] = molecular target: T1, human erythrocyte acetylcholinesterase (Homo sapiens, UniProt P22303); assay: AChE inhibition, modified Ellman's method; assay type: biochemical
T1 construct: solution of hemolyzed erythrocytes diluted 400-fold; from tissue; host or cells: hemolyzed erythrocytes from blood of healthy human donors
T1 sequence (P22303 32-617 isoform P22303-2 limits assumed): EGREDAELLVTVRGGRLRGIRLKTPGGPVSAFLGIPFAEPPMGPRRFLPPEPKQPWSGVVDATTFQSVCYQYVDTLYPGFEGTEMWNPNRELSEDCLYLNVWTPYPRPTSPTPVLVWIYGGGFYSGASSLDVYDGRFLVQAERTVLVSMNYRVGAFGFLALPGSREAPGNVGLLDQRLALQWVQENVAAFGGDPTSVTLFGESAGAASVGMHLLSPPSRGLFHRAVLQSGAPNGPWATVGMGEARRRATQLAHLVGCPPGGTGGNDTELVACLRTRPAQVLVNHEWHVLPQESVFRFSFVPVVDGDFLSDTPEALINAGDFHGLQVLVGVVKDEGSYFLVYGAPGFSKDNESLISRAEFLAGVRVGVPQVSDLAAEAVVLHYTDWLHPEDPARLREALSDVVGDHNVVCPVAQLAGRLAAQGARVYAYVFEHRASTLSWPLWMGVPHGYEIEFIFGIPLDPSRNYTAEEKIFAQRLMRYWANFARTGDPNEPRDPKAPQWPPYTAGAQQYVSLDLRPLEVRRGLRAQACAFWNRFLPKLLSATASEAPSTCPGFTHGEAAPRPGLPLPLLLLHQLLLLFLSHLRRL

[2] = molecular target: T2, human plasma butyrylcholinesterase (Homo sapiens, UniProt P06276); assay: BuChE inhibition, modified Ellman's method; assay type: biochemical; conditions: experimental data; mean ± SD, n = 6–9; read-out: IC50 BuChE
T2 construct: The solution of plasma 200-fold diluted with 0.9% NaCl; from tissue; host or cells: citrated plasma from blood of healthy human donors
T2 sequence (P06276 29-602): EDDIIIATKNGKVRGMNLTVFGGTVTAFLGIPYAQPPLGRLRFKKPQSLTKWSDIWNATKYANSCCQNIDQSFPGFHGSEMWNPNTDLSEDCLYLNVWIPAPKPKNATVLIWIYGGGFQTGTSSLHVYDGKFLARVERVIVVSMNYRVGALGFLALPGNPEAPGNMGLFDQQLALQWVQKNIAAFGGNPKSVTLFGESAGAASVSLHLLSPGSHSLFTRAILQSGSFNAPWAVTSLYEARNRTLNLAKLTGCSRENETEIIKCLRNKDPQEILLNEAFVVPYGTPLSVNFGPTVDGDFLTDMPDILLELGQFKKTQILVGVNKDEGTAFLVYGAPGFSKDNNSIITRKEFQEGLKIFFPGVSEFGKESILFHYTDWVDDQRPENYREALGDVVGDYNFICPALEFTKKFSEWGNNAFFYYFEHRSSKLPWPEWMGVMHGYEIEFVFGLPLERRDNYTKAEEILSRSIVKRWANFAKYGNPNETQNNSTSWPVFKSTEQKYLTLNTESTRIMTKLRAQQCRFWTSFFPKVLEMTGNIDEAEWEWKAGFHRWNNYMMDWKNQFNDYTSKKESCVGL

HUVEC cells = assay: WST-1 viability under AAPH-induced oxidative stress, HUVEC; assay type: cell-based, human; conditions: AAPH 17.5 mmol/L, relative to pure medium control
Protocol: WST-1 assay (Takara, Takara Bio Europe, Saint-Germain-en-Laye, France) was used to assess the effects of antipsychotics on the growth of HUVEC and astrocytes. The experiments were conducted as described previously. HUVEC were seeded at a density of 7500 cells, and astrocytes at 5000 cells per well on 96-well microplates and cultured for 24 h followed by treatment with compounds at ½ × TPCmax and TPCmax or pure medium as a control (v = 100 μL) for another 24 h (37 °C, 5% CO2). Subsequently, the cells were washed with culture medium (100 μL) and WST-1 reagent diluted in medium (10 μL of reagent + 90 μL of medium) was added. The plates were incubated at 37 °C in 5% CO2 for another 90 min for HUVEC and 60 min for astrocytes. The absorbance was read at 450 nm using a microplate reader (iMARK, Bio-Rad, Hercules, CA, USA). The cells viability was expressed as a percentage of the control samples which constituted 100% viability.
Moreover, the WST-1 assay was used to evaluate potential protective effects of antipsychotics on the growth of HUVEC and astrocytes under conditions of AAPH-induced oxidative stress. The experimental conditions were the same as in viability studies. AA at the final concentration of 10 μg/mL was used as an antioxidant control. After reaching the confluence, the antipsychotics were added at concentrations equaling ½ × TPCmax and TPCmax. After 1 h incubation under standard conditions, 50 μL AAPH was added to the wells containing tested compounds or AA. The AAPH concentration was chosen on the basis of preliminary experiments—17.5 mmol/L in HUVEC experiments, and 15.0 mmol/L in the case of astrocytes.

BuChE = BuChE (Homo sapiens, UniProt P06276); assay: Synergism of antipsychotics with donepezil/rivastigmine (binary mixtures), BuChE; conditions: ComboSyn;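 further: combination index derived by median-effect analysis of combined drug effects on the cholinesterase, with values below 1 meaning synergism, exactly 1 additivity and above 1 antagonism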
Sequence of BuChE (P06276 29-602): as above
Description: In turn, the concentrations of antipsychotics were constant in every measurement, and were chosen on the basis of estimated therapeutic plasma concentrations.
Automatic simulation of synergism and antagonism at all doses or effect levels is possible by computer software, based on algorithms. Calculation of the combination index (CI) and isobologram analyses enable to quantitatively determine drug interactions, where CI < 1, =1 and >1 indicate synergism, additive effect and antagonism, respectively. […] The software also allowed us to display the dose–effect curve, the median–effect plot and the dose-reduction index (DRI) plot [36].

For `OCCOCCN1CCN(C2=Nc3ccccc3Sc3ccccc32)CC1` [Quetiapine, quetiapine], which “RBCs hemolysis with AAPH” value (human erythrocytes; 5 h, AAPH control 53.4%) is on record?
Its value is 23.9%.

And the “RBCs hemolysis with AAPH” value (human erythrocytes; 24 h, AAPH control 45.9%)?
Its value is 51.9%.

What about the AChE reaction velocity ([1]; over 4000 µg/L (two ends of the printed span), control 0.264 ± 0.014 A/min) of the same molecule?
The AChE reaction velocity was 0.257 ± 0.016 A/min and 0.241 ± 0.013 A/min.

What about the IC50 ([1]; theoretical values calculated on the basis of extrapolated plots) of the same molecule?
Its IC50 is over 100 µM.

And the IC50 [2]?
The IC50 was 6.08 ± 1.63 µM.

What about the “viability of HUVEC under AAPH” value (HUVEC cells; TPC (bromperidol 25 μg/L, quetiapine 400 μg/L)) of the same molecule?
Its value is 74.9%.

What about the “viability of HUVEC under AAPH” value (HUVEC cells; ½ × TPC (bromperidol 12.5 μg/L, quetiapine 200 μg/L)) of the same molecule?
The value was 66.8%.

What about the “CI (combination index), BuChE” value (BuChE; donepezil 2 μmol/L + antipsychotic at TPCmax) of the same molecule?
Its value is 0.64.

What about the “CI (combination index), BuChE” value (BuChE; donepezil 5 μmol/L + antipsychotic at TPCmax) of the same molecule?
The value was 0.64.

And the “CI (combination index), BuChE” value (BuChE; donepezil 10 μmol/L + antipsychotic at TPCmax)?
The value was 0.71.

What about the “CI (combination index), BuChE” value (BuChE; donepezil 20 μmol/L + antipsychotic at TPCmax) of the same molecule?
Its value is 0.75.

What about the “CI (combination index), BuChE” value (BuChE; donepezil 50 μmol/L + antipsychotic at TPCmax) of the same molecule?
Its value is 0.85.

What about the “CI (combination index), BuChE” value (BuChE; rivastigmine 0.05 μmol/L + antipsychotic at TPCmax) of the same molecule?
The value was 2.24.

What about the “CI (combination index), BuChE” value (BuChE; rivastigmine 0.1 μmol/L + antipsychotic at TPCmax) of the same molecule?
Its value is 1.42.
